According to PMC8398779, “VEGFR-Mediated Cytotoxic Activity of Pulicaria undulata Isolated Metabolites: A Biological Evaluation and In Silico Study” (Life, 2021):
In brackets after ≈: the same amount, converted by molar mass.

Experiments:
[1] = test system: VEGFR-2; experiment: Immunohistochemistry of VEGFR-2 expression in EAC tumor tissue; format: in vivo, Swiss albino female mice; details: day 21, extract 200 mg/kg PO, compounds 50 mg/kg PO, vs control EAC
Experimental: (§1) Swiss albino female mice obtained from the Egyptian Organization for Biological Products and Vaccines (Vacsera, Egypt), and weighing 25–30 g were used. The mice were kept in plastic cages with mesh floor and hardwood bedding at 25 °C temperature under normal light/dark cycle, with water and food provided ad libitum. Mice were left to acclimatize for 1 week before the experiments. They were randomly divided into nine groups (7 mice each). The first group served as the normal group and received saline. EAC cells were inoculated in all other groups. Group 2 was considered the EAC control. Group 3 received (200 mg/kg) of P. undulata extract PO three times weekly. Groups (4–9) received (50 mg/kg) of Xanthoxyline, Oleanolic acid, Stigmasterol, Salvigenin, Rhamnetin and Dihydroquercetin 4′-methyl ether, respectively, PO three times daily. All compounds were dissolved in saline.
The day of tumor inoculation was considered as day zero (0). […]
(§2) For immunohistochemical examination, the tumor discs were fixed in 10% neutral buffered formalin overnight and then embedded in paraffin. When analyzed, all paraffin-embedded tissues were sectioned at 4-μm, deparaffinized in xylene, and hydrated through graded ethyl alcohol series in decreasing concentrations (100%, 90%, 80% and 70%). […] The expression of VEGFR-2 and CD34 were assessed and percentage of stained area was measured.

[2] = test system: breast cancer cell line (MCF-7); experiment: Sulphorhodamine B (SRB) antiproliferative assay on MCF-7; details: Homo sapiens, MCF7, 48 h
Experimental: The potential cytotoxic activities of the P. undulata extract and isolated compounds against breast cancer cell line (MCF-7) were evaluated using a Sulphorhodamine-B (SRB) assay.

[3] = test system: CD34; experiment: Immunohistochemistry of CD34 expression in EAC tumor tissue; format: in vivo, Swiss albino female mice; details: day 21, extract 200 mg/kg PO, compounds 50 mg/kg PO, vs control EAC
Experimental: as §1
(§3) The day of tumor inoculation was considered as day zero (0). Treatment of groups (3–9) started at the 7th day after tumor inoculation, and continued for 2 weeks until day 21. The in vivo study was in accordance with the Guide for the Care and Use of Laboratory animals. The study protocol was approved by the ethical committee of Faculty of Pharmacy, Suez Canal University (code of approval 20201907RA2)
On the 21st day of EAC cells inoculation, blood samples were collected under light ether anesthesia from the orbital sinus (retro-orbital plexus). The blood samples were left to clot for 20 min followed by separation of the serum by centrifugation at 4000 rpm for 15 min. […]
as §2

[4] = test system: normal Vero cell line; experiment: Sulphorhodamine B (SRB) assay on normal Vero cell line; details: Chlorocebus sabaeus, 48 h
[5] = test system: VEGF-B; experiment: Serum VEGF-B by ELISA in EAC-bearing mice; format: in vivo, Swiss albino female mice; details: day 21, extract 200 mg/kg PO, compounds 50 mg/kg PO, days 7-21, vs control EAC
Experimental: as §1, §3
On the 21st day of EAC cells inoculation, blood samples were collected under light ether anesthesia from the orbital sinus (retro-orbital plexus). The blood samples were left to clot for 20 min followed by separation of the serum by centrifugation at 4000 rpm for 15 min. Mice were sacrificed by cervical dislocation and tumor discs were separated, weighed and fixed in 10% neutral buffered formalin for immunohistochemical investigations.
Serum samples were stored at (−20 °C) and used for determination of the level of VEGF-B by ELISA kit (ab213897) (Abcam, Cambridge, UK) according to the manufacturer’s protocol.

[6] = test system: Ehrlich ascites carcinoma (EAC) solid tumors; experiment: Weight of EAC solid tumors in mice; format: in vivo, Swiss albino female mice; details: day 21, extract 200 mg/kg PO, compounds 50 mg/kg PO, days 7-21, vs control EAC
Experimental: Cells of EAC were purchased from Tumor Biology Department, National Cancer Institute, Cairo University. EAC is a murine spontaneous breast cancer that served as the original tumor from which an ascites variant was obtained. Ascetic fluid was aspired under aseptic conditions from the peritoneal cavity of tumor-bearing mice. The viability and contamination of EAC cells were tested using trypan blue dye exclusion technique. Trypan blue dye stains dead cells only. EAC cells with 90% viability or more were suspended in normal saline (2.5 × 10^6 cells/0.1 mL). The mice were inoculated intradermally with 0.l ml EAC suspension on the lower ventral side after shaving.
as §1, with “Groups (4–9) received (50 mg/kg) of Xanthoxyline, Oleanolic acid, Stigmasterol, Salvigenin, Rhamnetin and Dihydroquercetin 4′-methyl ether, respectively, PO three times daily. All compounds were dissolved in saline.” left out

Row | Structure (SMILES) | VEGFR-2 expression (immunohistochemistry, stained area) [1] | IC50 [2] [µg/mL] | CD34 expression (immunohistochemistry, stained area) [3] | IC50 [4] [µg/mL] | serum VEGF-B levels [5] | tumor weight [6]
1 | COc1cc(O)c2c(=O)c(O)c(-c3ccc(O)c(O)c3)oc2c1 [Compound 5, 5,3’,4’-trihydroxy-7 methoxyflavonol] | lowest expression | 18.5 ± 0.12 (≈ 58.5 µM) | least expression of CD34 | > 50 | nearly normalize VEGF-B levels | least tumor weights
2 | CC1(C)CC[C@]2(C(=O)O)CC[C@]3(C)C(=CC[C@@H]4[C@@]5(C)CC[C@H](O)C(C)(C)[C@@H]5CC[C@]43C)[C@@H]2C1 [Compound 3, Oleanolic acid] | significantly (p < 0.05) lowered VEGFR-2 expression | 30 ± 0.14 (≈ 65.7 µM) | – | > 50 | – | –
3 | COc1ccc(-c2cc(=O)c3c(O)c(OC)c(OC)cc3o2)cc1 [Compound 4, 5-hydroxy-4’,6,7-trimethoxyflavone] | – | 18 ± 0.08 (≈ 54.8 µM) | poor expression of CD34 | > 50 | nearly normalize VEGF-B levels | –
4 | COc1cc(O)c(C(C)=O)c(OC)c1 [Compound 1, 2-hydroxy-4,6-dimethoxyacetophenone] | – | 23.5 ± 0.09 (≈ 120 µM) | – | 46 ± 0.28 (≈ 234 µM) | nearly normalize VEGF-B levels | –
5 | CC[C@H](/C=C/[C@@H](C)[C@H]1CC[C@H]2[C@@H]3CC=C4C[C@@H](O)CC[C@]4(C)[C@H]3CC[C@]12C)C(C)C [Compound 2, Stigmasterol] | – | 47 ± 0.06 (≈ 114 µM) | poor expression of CD34 | > 50 | nearly normalize VEGF-B levels | –
6 | COc1ccc(C2Oc3cc(O)cc(O)c3C(=O)C2O)cc1O (stereo not drawn) [Compound 6, dihydroquercetin 4′-methyl ether] | – | 22.5 ± 0.06 (≈ 70.7 µM) | – | > 50 | – | least tumor weights
7 | COc1cccc2c1C(=O)c1c(O)c3c(c(O)c1C2=O)C[C@@](O)(C(=O)CO)C[C@@H]3O[C@H]1C[C@H](N)[C@H](O)[C@H](C)O1 [Doxo, doxorubicin, reference compound] | – | – | – | 24.9 ± 0.17 (≈ 45.8 µM) | – | –
